Measured values: patent publication US6417197B1, “Acylated n-hydroxy methyl thalidomide prodrugs with immunomodulator action” (Gruenenthal GmbH, priority 1996, dated 2002)
In brackets after ≈: the same amount, converted by molar mass. Blank lines part the entries; values can stand above or below the compound they belong to.

How the values were obtained:
[1] = Arch. Pharm. 321, 371 (1988); cited from earlier work
[2] = for solubility in water, corresponding thalidomide amount: thalidomide equivalent of the water solubility; for solubility: water, 25 °C
serum IL-2 = assay: SEB-induced increase in serum IL-2 in galactosamine-pretreated balb/c mice; format: in vivo; details: 30 minutes before SEB; for Max. inhibition of the increase in serum IL-2 at a dose of 400 mg/kg: 400 mg/kg intraperitoneally, IL-2 2 hours after SEB, balb/c mice
release of TNF-α = assay: LPS-induced release of TNF-α in human mononuclear cells of the peripheral blood (ELISA); format: cell-based; details: LPS stimulation; for inhibition at 50 µg/mL: read-out: Inhibition of the release of TNF-α at a final concentration of 50 μg/ml; for IC50: Homo sapiens, linear regression line, read-out: IC50 (50% inhibition of the release of TNF-α)
Procedure: The release of TNF-α was investigated in vitro on human mononuclear cells of the peripheral blood (T cells, B cells and monocytes), after stimulation with lipopolysaccharide (LPS). LPS is a constituent of the bacterial cell wall and stimulates monocytes and macrophages.
Mononuclear cells were obtained from the heparin-treated blood of at least three volunteer donors. For this purpose, 20 ml blood in each case were separated by known methods via a Ficoll-Paque gradient, and the cells were harvested and washed three times with a cell culture medium. The cell culture medium which was used consisted of RPMI 1640 medium, supplemented with 2 mM glutamine (Life Technologies, Eggenstein), 10% foetal calf serum (Life Technologies), […] streptomycin (Sigma, Deisenhofen), 50 IU/ml penicillin (Sigma, Deisenhofen) and 100 μM β-mercaptoethanol (Merck, Darmstadt). The mononuclear cells were subsequently taken up in 15 ml cell culture medium and were divided into 1 ml batches in sterile 24-hole incubation plates (Sigma) 1 μl dimethylsulphoxide (DMSO, Merck) was added to the 1 ml batches which were used as the control batch. 1 μl of a solution of a compound according to the invention (in DMSO; final concentration in the test: 0.5; 5; 12.5 and 50 μg/ml) was added to the test batches. The batches were incubated for one hour in a CO2 incubation cabinet (5% CO2, 90% atmospheric humidity). 2.5 μg LPS (from E. coli 0127: B8, Sigma, Deisenhofen) was subsequently added as a stimulant to each batch with the exception of the control batches. Incubation of the cultures was continued for 20 hours. Following the incubation, the concentration of TNF-α in the cell culture supernatant liquors was determined by ELISA tests (Boehringer Mannheim).

[3] = 50 μg/ml, 20 hours, human mononuclear cells

Compound: O=C1CCC(N2C(=O)c3ccccc3C2=O)C(=O)N1 (stereo not shown) [thalidomide]
solubility of thalidomide in water [1]: 0.012 mg/mL

solubility in water, corresponding thalidomide amount [2]: > 190 mg thalidomide/ml | solubility [2]: > 300 mg/mL
Compound: Cl.NCC(=O)NCC(=O)OCN1C(=O)CCC(N2C(=O)c3ccccc3C2=O)C1=O (stereo not shown) [Compound 8, 2-(aminomethylcarbonylamino) acetic acid-[3(1,3-dihydro-1,3-dioxo-2H-isoindol-2-yl)-2,6-dioxo-piperidin-1-yl]methyl ester hydrochloride]

Compound: Cl.NCC(=O)OCN1C(=O)CCC(N2C(=O)c3ccccc3C2=O)C1=O (stereo not shown) [Compound 2, 2-aminoacetic acid-[3-(1,3-dihydro-1,3-dioxo-2H-isoindol-2-yl)-2,6-dioxo-piperidin-1-yl]methyl ester hydrochloride]
Max. inhibition of the increase in serum IL-2 at a dose of 400 mg/kg (serum IL-2): 68% | ED40 (dose giving 40% reduction in serum IL-2 concentrations) (serum IL-2; intraperitoneal, regression line): 230 mg/kg | inhibition at 50 µg/mL (release of TNF-α; [3]): 54% | solubility in water, corresponding thalidomide amount [2]: 33.6 mg thalidomide/ml | solubility [2]: 497 mg/mL

Compound: [3-(1,3-dihydro-1,3-dioxo-2H-isoindol-2-yl)-2,6-dioxo-piperidin-1-yl]-methoxycarbonylpropionic acid [Compound 9]
Inhibition of the release of TNF-α at a final concentration of 50 μg/ml (release of TNF-α; [3]): 35%

Compound: CNC(C)C(=O)OCN1C(=O)CCC(N2C(=O)c3ccccc3C2=O)C1=O.Cl (stereo not shown) [Compound 4, 2-m ethylaminopropionic acid-[3-(1,3-dihydro-1,3-dioxo-2H-isoindol-2-yl)-2,6-dioxopiperidin-1-yl]methyl ester hydrochloride]
Max. inhibition of the increase in serum IL-2 at a dose of 400 mg/kg (serum IL-2): 26% | melting point: 147 to 151 °C | solubility in water, corresponding thalidomide amount [2]: > 190 mg thalidomide/ml | solubility [2]: > 300 mg/mL

Compound: CC(C)(C)OC(=O)NCC(=O)OCN1C(=O)CCC(N2C(=O)c3ccccc3C2=O)C1=O (stereo not shown) [Compound 1, N-t-butyl oxycarbonyl-2-aminoacetic acid-[3-(1,3-dihydro-1,3-dioxo-2H-isoindol-2-yl)-2,6-dioxopiperidin-1-yl]methyl ester]
Max. inhibition of the increase in serum IL-2 at a dose of 400 mg/kg (serum IL-2): 34% | inhibition at 50 µg/mL (release of TNF-α; [3]): 78% | IC50 (release of TNF-α): 2.7 µg/mL (≈ 6.06 µM)

Compound: CC(C)C(N)C(=O)OCN1C(=O)CCC(N2C(=O)c3ccccc3C2=O)C1=O.Cl (stereo not shown) [Compound 6, 2-amino-3-methylbutyric acid-[3-(1,3-dihydro-1,3-dioxo-2H-isoindol-2-yl)-2,6-dioxopiperidin-1-yl]methyl ester hydrochloride]
Max. inhibition of the increase in serum IL-2 at a dose of 400 mg/kg (serum IL-2): 52% | melting point: 145 to 150 °C | inhibition at 50 µg/mL (release of TNF-α; [3]): 97% | IC50 (release of TNF-α): 2 µg/mL | solubility in water, corresponding thalidomide amount [2]: > 190 mg thalidomide/ml | solubility [2]: > 300 mg/mL
